Experimental findings from paper PMC8900826, “Structural basis for substrate recognition in the Phytolacca americana glycosyltransferase PaGT3” (Acta Crystallographica. Section D, Structural Biology, 2022) are described below.

What all share (experiment): X-ray crystal structure, […] A
Holding throughout (type): binding

The target of assay [1] is T1, PaGT3 (Phytolacca americana, UniProt B5MGN9).
T1 construct: full length; N-terminal His6 tag with TEV site, cut off (one Gly left before Met1); expressed in E. coli BL21 (DE3); two molecules in the asymmetric unit
Particulars: co-crystallized without acceptor; sugar-donor site; non-transferred donor analogue; also bound in 7vej and 7vek.

Assay [2] has as its target T1, PaGT3. The conditions noted are these: soaked into PaGT3/UDP-2FGlc crystals; acceptor site, molecule B only, occupancy 0.8.
The target of assay [3] is T1, PaGT3. The conditions noted are these: co-crystallized with UDP-2FGlc; acceptor site, both molecules, two different positions.

T1 sequence (B5MGN9 entry or part of it): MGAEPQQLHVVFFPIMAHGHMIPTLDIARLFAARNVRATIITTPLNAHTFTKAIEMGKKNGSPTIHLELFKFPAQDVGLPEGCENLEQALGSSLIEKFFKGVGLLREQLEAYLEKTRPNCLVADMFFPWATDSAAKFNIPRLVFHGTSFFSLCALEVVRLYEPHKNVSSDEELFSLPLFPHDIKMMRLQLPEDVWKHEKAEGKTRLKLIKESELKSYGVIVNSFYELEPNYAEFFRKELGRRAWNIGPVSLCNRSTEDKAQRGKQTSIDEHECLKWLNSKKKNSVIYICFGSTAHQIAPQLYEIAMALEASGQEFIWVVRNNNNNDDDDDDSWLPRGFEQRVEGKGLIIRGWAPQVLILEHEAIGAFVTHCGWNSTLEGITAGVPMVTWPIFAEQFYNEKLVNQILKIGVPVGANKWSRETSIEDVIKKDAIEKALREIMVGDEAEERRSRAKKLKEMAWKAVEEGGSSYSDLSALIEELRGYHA

`O=c1ccn([C@@H]2O[C@H](COP(=O)(O)OP(=O)(O)O[C@H]3O[C@H](CO)[C@@H](O)[C@H](O)[C@H]3F)[C@@H](O)[C@H]2O)c(=O)[nH]1` [UDP-2FGlc]: the “X-ray crystal structure, 2.20 A” value in assay [1] was “The crystal structure of PaGT3 with the sugar-donor analogue UDP-2FGlc was determined”.

For the compound `COc1cc(CNC(=O)CCCC/C=C/C(C)C)ccc1O` [capsaicin], the “X-ray crystal structure, 2.60 A” value in assay [2] is listed as “The calculated polder map confirms the occupancy of capsaicin in PaGT3 molecule B”.

Turning to `O=c1c(O)c(-c2ccc(O)cc2)oc2cc(O)cc(O)c12` [kaempferol], in assay [3], the “X-ray crystal structure, 1.85 A” value is given as “The electron density of kaempferol in both molecules of the enzyme”.
